According to patent publication US20240391931A1 (Bristol-Myers Squibb Company, priority 2021, published 2024):

Biological target: HER2YVMA (Homo sapiens, UniProt P04626, INS775YVMA)
Assay: HER2 signaling (pHER2) in Hek293-HER2YVMA cells
Assay type: cell-based
Set-up: expressed in transfected cells; host or cells: HEK293 (pool), Ba/F3 (clones), BEAS2B (clones); lentiviral vector pCDH-CMV-MCS-EF1-Neo
Details: 1.5 hr compound, 1% FBS, read-out: HEKYVMA pHER2 EC50
Method: Cell culture, plasmid cloning, and lentiviral transduction were carried out according to standard procedures. The Human HER2 cDNA construct in pCMV6-Entry for the HER2 wildtype (WT) expression was obtained from Origene. The HER2 cDNA including the 12-nucleotide insertion corresponding to YVMA insertion (HER2YVMA) was codon optimized, synthesized and cloned by GenScript (Piscataway, NJ) in pcDNA3.1. The lentiviral constructs expressing HER2YVMA and HER2 WT were sub-cloned using PCR at System Biosciences (SBI, Mountainview, CA) into lentiviral vectors pCDH-CMV-MCS-EF1-Neo and lentiviral particles were generated.
Engineered lines expressing HER2YVMA and HER2 WT were prepared in HEK293 (human embryonic kidney cells), Ba/F3 (Interleukin 3 (IL3)-dependent murine pro B cell line), and BEAS2B (primary immortalized human bronchial epithelial cell line). Ba/F3, BEAS2B, and HEK293 cells were obtained from the American Type Culture Collection (ATCC, Manassas, VA). Parental Ba/F3 cells were grown in suspension in complete RPMI 1640 supplemented with 10% FBS and 1% P/S and 10 ng/ml interleukin 3 (IL3, Sigma-Aldrich). Hek293 and BEAS2B cells were grown as monolayers in DMEM supplemented with 10% FBS and 1% P/S. All cells were maintained and propagated in a humidified 5% CO2 incubator at 37° C.
To generate Ba/F3, BEAS2B, and Hek-293 cells engineered with lentivirus to express HER2 WT or HER2YVMA, the cells were transduced with lentiviruses at multiplicity of infection (MOI) of 1 or 10; transduced cells were selected and maintained with G418 ([…]) (Geneticin, Life Technologies, Carlsbad, CA). Ba/F3 engineered cells were subjected to gradual withdrawal of interleukin 3 (IL-3, Sigma-Aldrich). After selection, IL3 independent Ba/F3 HER2YVMA, and BEAS2B HER2YVMA cells were cloned by limiting dilution. Hek293 HER2YVMA cells were used as pool. HER2 and phospho HER2 levels were confirmed by flow cytometery and immunoassay (MSD, Meso-Scale Discovery, Rockville, Maryland).
HER2 signaling was assessed in BT474 and N87 cell lines which endogenously overexpress the HER2 wildtype (WT) protein, in NCI-H1781 cells which endogenously expresses a HER2 mutant protein containing a VC insertion in the kinase domain (HER2VC or G776delinsVC), and in engineered cell lines transduced to express the Her2 mutant protein containing the YVMA insertion (Hek293-HER2YVMA and BEAS2B-HER2YVMA).
BT474, N87, and NCI-H1781 were plated in 96-well tissue-culture treated plates (Corning Costar, Sigma-Aldrich) in full media and incubated overnight. Hek293-HER2YVMA and BEAS2B-HER2YVMA cells were plated in 96-well poly-D-lysine treated plates (BD Bioscience, San Jose, CA). For treatment with test compounds, the media was replaced with corresponding low serum media (1% FBS) containing test compound at 1.1, 0.37, 0.12, 0.041, 0.014, 0.005, 0.0014, 0.0005 μM or DMSO control (0.1%). Cells were incubated with compound for 1.5 hr at 37° C. After compound treatment, the media was removed and cells were lysed for 30 min on ice in complete MSD lysis buffer (prepared using MSD base lysis buffer (Meso-Scale Discovery) supplemented with cOmplete, EDTA-free Protease inhibitor cocktail (Roche), Phosphatase Inhibitor Cocktails 2 and 3 (Sigma-Aldrich), and 1 mM PMSF (Sigma-Aldrich)). Lysates were stored at −70° C. until further analysis.
HER2 signaling was evaluated using phospho (Tyr1248)/total ErbB2 whole cell lysate MSD plates (Meso-Scale Discovery, Gaithersburg, MD). The phospho HER2 signal was normalized to total HER2 for each sample; results are reported as % DMSO control. The normalized data was fitted using a sigmoidal curve analysis program (Graph Pad Prism version 6) with variable Hill slope to determine EC50 values.
The HER2 signaling results are provided in Table 4, under columns titled “BT474-pHER2 EC50”, “N87-pHER2 EC50”, and “NCI-H1781-pHER2 EC50”. […]

Sequence of HER2YVMA (P04626 with tags, fused parts or gaps INS775YVMA): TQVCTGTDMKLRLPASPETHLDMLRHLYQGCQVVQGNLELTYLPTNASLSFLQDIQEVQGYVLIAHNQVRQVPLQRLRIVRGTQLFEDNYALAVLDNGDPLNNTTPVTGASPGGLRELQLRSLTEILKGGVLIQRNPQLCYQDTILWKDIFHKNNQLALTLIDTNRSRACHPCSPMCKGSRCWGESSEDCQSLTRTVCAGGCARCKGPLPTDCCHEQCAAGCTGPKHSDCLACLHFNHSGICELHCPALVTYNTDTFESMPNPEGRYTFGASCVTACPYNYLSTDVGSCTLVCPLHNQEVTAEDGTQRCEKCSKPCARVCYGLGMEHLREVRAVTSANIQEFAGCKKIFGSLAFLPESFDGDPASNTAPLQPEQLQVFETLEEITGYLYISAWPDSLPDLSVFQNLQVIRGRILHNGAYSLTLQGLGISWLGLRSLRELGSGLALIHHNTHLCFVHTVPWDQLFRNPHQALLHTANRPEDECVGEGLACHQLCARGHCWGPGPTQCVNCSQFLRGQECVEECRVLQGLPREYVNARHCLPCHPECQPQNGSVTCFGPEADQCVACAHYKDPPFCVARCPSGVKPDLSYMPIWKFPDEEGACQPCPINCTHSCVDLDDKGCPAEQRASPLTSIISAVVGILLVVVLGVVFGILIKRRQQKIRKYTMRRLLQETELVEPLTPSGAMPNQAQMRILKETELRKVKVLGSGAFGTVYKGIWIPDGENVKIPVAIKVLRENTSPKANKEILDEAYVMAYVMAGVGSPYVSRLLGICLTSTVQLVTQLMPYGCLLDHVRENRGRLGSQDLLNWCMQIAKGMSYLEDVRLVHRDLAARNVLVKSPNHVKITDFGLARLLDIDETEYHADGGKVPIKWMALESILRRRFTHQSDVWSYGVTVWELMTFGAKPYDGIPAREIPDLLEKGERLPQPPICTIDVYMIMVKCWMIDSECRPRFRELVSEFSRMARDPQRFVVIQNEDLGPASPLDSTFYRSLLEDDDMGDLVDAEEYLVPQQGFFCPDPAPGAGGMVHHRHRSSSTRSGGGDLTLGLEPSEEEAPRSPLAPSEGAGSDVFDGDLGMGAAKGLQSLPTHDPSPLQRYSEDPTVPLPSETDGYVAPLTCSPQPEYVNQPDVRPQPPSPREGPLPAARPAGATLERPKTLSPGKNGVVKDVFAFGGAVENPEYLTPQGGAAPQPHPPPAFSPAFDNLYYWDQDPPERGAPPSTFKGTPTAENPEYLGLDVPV

SMILES	EC50
Cc1cc(Nc2ncnc3sc4c(c23)CCN(C(=O)/C=C/CN(C)C)C4)ccc1Oc1ccn2ncnc2c1 [Compound 138, (E)-1-(4-((4-([1,2,4]triazolo[1,5-a]pyridin-7-yloxy)-3-methylphenyl)amino)-5,8-dihydropyrido[4′,3′:4,5]thieno[2,3-d]pyrimidin-7(6H)-yl)-4-(dimethylamino)but-2-en-1-one]	< 100 nM
C#CCOCCN(C)C/C=C/C(=O)N1CCc2c(sc3ncnc(Nc4ccc(Oc5ccc(C)nc5)c(C)c4)c23)C1 [Compound 139]	< 100 nM
COc1ccc(Oc2ccc(Nc3ncnc4sc5c(c34)CCN(C(=O)/C=C/CN3CC[C@H](CO)C3)C5)cc2C)cn1 [Compound 140]	< 100 nM
Cc1ccc(Oc2ccc(Nc3ncnc4sc5c(c34)C(C)N(C(=O)/C=C/CN(C)C)C5)cc2C)cn1 (centres unmarked) [Compound 141, (E)-4-(dimethylamino)-1-(5-methyl-4-((3-methyl-4-((6-methylpyridin-3-yl)oxy)phenyl)amino)-5,7-dihydro-6H-pyrrolo[3′,4′:4,5]thieno[2,3-d]pyrimidin-6-yl)but-2-en-1-one]	< 100 nM
C=CC(=O)N1Cc2sc3ncnc(Nc4ccc(Oc5ccc(C)nc5)c(C)c4)c3c2C(C)C1 (centres unmarked) [Compound 142, 1-(5-methyl-4-((3-methyl-4-((6-methylpyridin-3-yl)oxy)phenyl)amino)-5,6-dihydropyrido[4′,3′:4,5]thieno[2,3-d]pyrimidin-7(8H)-yl)prop-2-en-1-one]	< 100 nM
COc1ccc(Oc2ccc(Nc3ncnc4sc5c(c34)CCN(C(=O)/C=C/CN3CC[C@@H](CO)C3)C5)cc2C)cn1 [Compound 143]	< 100 nM
Cc1ccc(Oc2ccc(Nc3ncnc4sc5c(c34)CCN(C(=O)/C=C/CN3CCO[C@@H](CO)C3)C5)cc2C)cn1 [Compound 144]	100 to 350 nM
Cc1ccc(Oc2ccc(Nc3ncnc4sc5c(c34)CCN(C(=O)/C=C/CN3CCCC(F)(CO)C3)C5)cc2C)cn1 (centres unmarked) [Compound 150]	< 100 nM
Cc1ccc(Oc2ccc(Nc3ncnc4sc5c(c34)CCN(C(=O)/C=C/CN3CC(F)(CO)C3)C5)cc2C)cn1 [Compound 151]	100 to 350 nM
COc1ccc(Oc2ccc(Nc3ncnc4sc5c(c34)C(C)CN(C(=O)/C=C/CN(C)C)C5)cc2C)cn1 (centres unmarked) [Compound 152, (E)-4-(dimethylamino)-1-(4-((4-((6-methoxypyridin-3-yl)oxy)-3-methylphenyl)amino)-5-methyl-5,8-dihydropyrido[4′,3′:4,5]thieno[2,3-d]pyrimidin-7(6H)-yl)but-2-en-1-one]	< 100 nM
Cc1ccc(Oc2ccc(Nc3ncnc4sc5c(c34)CN(C(=O)/C=C/CN(C)C)C5C)cc2C)cn1 (centres unmarked) [Compound 153, (E)-4-(dimethylamino)-1-(7-methyl-4-((3-methyl-4-((6-methylpyridin-3-yl)oxy)phenyl)amino)-5,7-dihydro-6H-pyrrolo[3′,4′:4,5]thieno[2,3-d]pyrimidin-6-yl)but-2-en-1-one]	< 100 nM
Cc1ccc(Oc2ccc(Nc3ncnc4sc5c(c34)CCN(C(=O)/C=C/CN3CCC[C@@H](CO)C3)C5)cc2C)cn1 [Compound 154]	< 100 nM
Cc1ccc(Oc2ccc(Nc3ncnc4sc5c(c34)CCN(C(=O)/C=C/CN3CCC[C@H](CO)C3)C5)cc2C)cn1 [Compound 155]	< 100 nM
Cc1cc(Nc2ncnc3sc4c(c23)CCN(C(=O)/C=C/CN(C)C)C4)ccc1Oc1ccc(N(C)C)nc1 [Compound 158, (E)-4-(dimethylamino)-1-(4-((4-((6-(dimethylamino)pyridin-3-yl)oxy)-3-methylphenyl)amino)-5,8-dihydropyrido[4′,3′:4,5]thieno[2,3-d]pyrimidin-7(6H)-yl)but-2-en-1-one]	< 100 nM
COc1ccc(Oc2ccc(Nc3ncnc4sc5c(c34)CCN(C(=O)/C=C/CN(C)C(C)(C)C)C5)cc2C)cn1 [Compound 163]	< 100 nM
COc1ccc(Oc2ccc(Nc3ncnc4sc5c(c34)CCN(C(=O)/C=C/CN3CCOCC3)C5)cc2C)cn1 [Compound 164]	< 100 nM
Cc1ccc(Oc2ccc(Nc3ncnc4sc5c(c34)CCN(C(=O)/C=C/CN(C)C)CC5)cc2Cl)cn1 [Compound 167, (E)-1-(4-((3-Chloro-4-((6-methylpyridin-3-yl)oxy)phenyl)amino)-8,9-dihydro-5H-pyrimido[5′,4′:4,5]thieno[2,3-d]azepin-7(6H)-yl)-4-(dimethylamino)but-2-en-1-one]	100 to 350 nM
Cc1cc(Nc2ncnc3sc4c(c23)CCN(C(=O)/C=C/CN(C)C)CC4)ccc1Oc1ccn2ncnc2c1 [Compound 168]	100 to 350 nM
Cc1ccc(Oc2ccc(Nc3ncnc4sc5c(c34)C(C)CN(C(=O)/C=C/CN(C)C)C5)cc2Cl)cn1 (centres unmarked) [Compound 171, (E)-1-(4-((3-Chloro-4-((6-methylpyridin-3-yl)oxy)phenyl)amino)-5-methyl-5,6-dihydropyrido[4′,3′:4,5]thieno[2,3-d]pyrimidin-7(8H)-yl)-4-(dimethylamino)but-2-en-1-one]	< 100 nM
Cc1cc(Nc2ncnc3sc4c(c23)CCN(C(=O)/C=C/CN(C)C)CC4)ccc1Oc1ccn2ccnc2c1 [Compound 172, (E)-4-(Dimethylamino)-1-(4-((4-(imidazo[1,2-a]pyridin-7-yloxy)-3-methylphenyl)amino)-8,9-dihydro-5H-pyrimido[5′,4′:4,5]thieno[2,3-d]azepin-7(6H)-yl)but-2-en-1-one]	100 to 350 nM
COc1ccc(Oc2ccc(Nc3ncnc4sc5c(c34)CCN(C(=O)/C=C/CN(C)C)CC5)cc2C)cn1 [Compound 173, (E)-4-(Dimethylamino)-1-(4-((4-((6-methoxypyridin-3-yl)oxy)-3-methylphenyl)amino)-8,9-dihydro-5H-pyrimido[5′,4′:4,5]thieno[2,3-d]azepin-7(6H)-yl)but-2-en-1-one]	100 to 350 nM
Cc1ccc(Oc2ccc(Nc3ncnc4sc5c(c34)C(C)CN(C(=O)/C=C/CN3CCOCC3)C5)cc2C)cn1 (centres unmarked) [Compound 174, (E)-1-(5-Methyl-4-((3-methyl-4-((6-methylpyridin-3-yl)oxy)phenyl)amino)-5,6-dihydropyrido[4′,3′:4,5]thieno[2,3-d]pyrimidin-7(8H)-yl)-4-morpholinobut-2-en-1-one]	< 100 nM
Cc1ccc(Oc2ccc(Nc3ncnc4sc5c(c34)C(C)CN(C(=O)/C=C/CN(C)C(C)(C)C)C5)cc2C)cn1 (centres unmarked) [Compound 175]	< 100 nM
